Values quoted from earlier work in patent publication US6491952B1, “Cholesterol lowering composition” (Triple Crown AB, priority 1998, dated 2002).

Details: daily intake; references 1-5

| SMILES | cholesterol lowering effect |
| --- | --- |
| CC[C@H](CC[C@@H](C)[C@H]1CC[C@H]2[C@@H]3CC[C@H]4C[C@@H](O)CC[C@]4(C)[C@H]3CC[C@]12C)C(C)C [β-sitostanol] | cholesterol lowering effect |
| CC[C@H](CC[C@@H](C)[C@H]1CC[C@H]2[C@@H]3CC=C4C[C@@H](O)CC[C@]4(C)[C@H]3CC[C@]12C)C(C)C [β-sitosterol] | cholesterol lowering effect |
